From patent US8455549B2, “Carbonylamino derivatives useful for the treatment of certain inflammatory disorders” (Aniona Aps, priority 0207, dated 2013)

Tested on: DNBS-induced distal colitis
Experiment: Inhibition of 2,4-Dinitrobenzenesulfonic Acid (DNBS)-induced distal colitis in rats
Type: in vivo, rat
Conditions: PO bid × 7, dose not specified
Description: Test substances A and B were evaluated for possible inhibition of 2,4-Dinitrobenzenesulfonic Acid (DNBS)-induced distal colitis in rats, which is a model of inflammatory bowel disease. The test compounds were soluble in a mixture of Cremophore EL, PEG400 and distilled water (10:10:80). Test substance was administered orally (PO) twice daily for 7 consecutive days. The dosing volume used was 10 ml/kg for PO. For test of Compound A groups of 10 Wistar derived male rats (BioLasco Taiwan) weighing 200±10 g were used. For test of Compound B groups of 5 Wistar derived male rats (BioLasco Taiwan) weighing 210±5 g were used. […] During the experiment, faecal occult blood and stool consistency were monitored daily. […] Also, the presence of colonic ulceration after removal and weighing of each colon (a macroscopic damage score) was recorded. […] The colon-to-body weight ratio was calculated according to the formula: (A) Colon-to-Body weight ratio (Colon weight/100 g B. W.) for each rat in respective treatment groups (vehicle blank, vehicle+DNBS, Test substance+DNBS and positive reference agent+DNBS) (B) The Net Increase of Colon weight/100 g B. W. For “vehicle+DNBS”: [(vehicle+DNBS)−(vehicle blank)] mean value of colon-to-body weight ratio For “test substance+DNBS”: [(test substance+DNBS)−(vehicle blank)] mean value of colon-to-body weight ratio (C) The percent decrease of colon weight/100 g B. Wt. […]

Structure (SMILES) | stool consistency, occult faecal blood and macroscopic damage (adhesion and ulcers) in the colon
CC(C)C(C(N)=O)(c1ccc(F)cc1)c1ccc(F)cc1 [Compound A, 2,2-Bis-(4-fluoro-phenyl)-3-methyl-butyramide] | improved
NC(=O)C(c1ccccc1)(c1ccc(F)cc1)c1ccc(F)cc1 [Compound B, 2,2-Bis-(4-fluoro-phenyl)-2-phenyl-acetamide] | improved
